Source: patent publication US10662225B2, “Backbone cyclized inhibitory peptides of myeloid differentiation factor 88 (MyD88)” (Yissum Research Development Company of the Hebrew …, priority 2016, dated 2020)
Numbered stars: 1 amine (or outer) side, 2 acyl side, 3 side chain; on linkers, the order of the positions; unused ones are H or OH. Bridge positions count the residues as written; N and C are the ends. Square brackets hold non-standard residues; d marks the D form. Peptide text beside a SMILES is read from it. CO = O=C([*:1])[*:2]; Nlys = NCCCCNCC(=O)O

Experiments:
[1] = biological target: T1, MyD88 dimerization (Homo sapiens, UniProt Q99836); test: Co-immunoprecipitation of Flag-MyD88 with HA-MyD88 in HEK293 cells; type: cell-based; settings: HEK293, IL-1 stimulation; 4×4MyDI at 20, 2, 0.2 μM; Myr-4×4MyDI at 0.2 or 2000 nM
T1 construct: constructs encoding HA-tagged full length MyD88 and Flag-tagged full length MyD88; expressed in transfected cells; host or cells: HEK293
Description: FIG. 10. 4×4MyDI blocks MyD88 dimerization. HEK293 cells were transfected with two plasmids, one encoding HA-MyD88 and the other encoding FLAG-MyD88 and after 48 hours the cells were either untreated (cont) or treated with 20 μM of the linear MyDI peptide, the scrambled version of the linear MyDI peptide (SEQ ID NO: 5,), or the 4×4MyDI at 20, 2, or 0.2 μM. After 3 h of treatment, cells were stimulated with recombinant human IL-1 (20 ng/ml) for 30 min and then lysed. Whole cell lysates (WCL) were immunoprecipitated with anti-HA beads (Thermo-Scientific) for 30 min and proteins were eluted with glycine Ph 2.0, neutralized, and loaded on an acrylamide gel for analysis. Proteins were transferred to nitrocellulose and the amount of Flag-MyD88 that co-precipitated with HA-MyD88 was detected by immunoblotting (IB) with anti-Flag antibody.
FIGS. 14A and 14B. […] Proteins were transferred to nitrocellulose and the amount of FLAG-MyD88 that co-precipitated with HA-MyD88 was detected by immunoblotting (IB) with anti-FLAG antibody. […] Percent inhibition of co-immunoprecipitation was calculated by comparing densitometry of bands in the treated lanes to control. […]
TLR and IL-1 receptor signaling proceeds through a multimeric protein signaling complex (the “Myddosome”) that is initiated by MyD88 homodimerization. […] Immunoprecipitated protein was eluted and analyzed by immunoblot using an antibody to Flag. […]

[2] = biological target: T2, MyD88 TIR domain (Homo sapiens, UniProt Q99836); test: Competition assay: binding of biotinylated linear BB loop peptide to MyD88 TIR domain; settings: different concentrations
T2 construct: made in house
Description: FIG. 9. 4×4MyDI binds to the BB loop region of the MyD88 TIR domain. A 96 well plate was coated with recombinant MyD88 (8 μg/ml) in coating buffer vs. buffer alone, and wells were blocked with 1% BSA. Biotinylated linear peptide was added to all wells (125 μg/ml) followed by streptavidin-HRP and substrate. The signal of linear peptide bound to its target was inhibited by incubation with the 4×4MyDI (*P<0.05) but not by incubation with the scrambled version of the linear peptide (SEQ ID NO: 5).
The ability of the 4×4MyDI compound to bind to the target region (the BB loop) of the MyD88 TIR domain, was evaluated using a newly-designed assay. For this goal a competition assay was established that tests the ability of the 4×4MyDI compound to prevent the binding of the biotinylated linear BB loop peptide to the MyD88 TIR domain. The MyD88 TIR domain was produced as a recombinant protein fused to the SUMO3 protein (Accession # NP_008867), purified, and attached to a 96 well plate. Binding of biotinylated RDVLPGT (SEQ. ID NO: 1) peptide was detected using streptavidin conjugated to horse radish peroxidase (HRP) followed by the addition of HRP substrate.

T1 sequence (Q99836 whole entry): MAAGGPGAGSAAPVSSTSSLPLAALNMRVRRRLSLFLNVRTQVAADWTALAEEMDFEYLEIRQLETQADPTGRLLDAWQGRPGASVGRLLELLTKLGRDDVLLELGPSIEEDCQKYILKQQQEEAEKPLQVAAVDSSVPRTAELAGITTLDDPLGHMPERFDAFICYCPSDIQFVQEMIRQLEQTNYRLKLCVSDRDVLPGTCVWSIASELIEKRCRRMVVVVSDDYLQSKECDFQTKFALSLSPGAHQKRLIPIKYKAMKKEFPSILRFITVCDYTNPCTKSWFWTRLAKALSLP
T2 sequence (Q99836 151-296): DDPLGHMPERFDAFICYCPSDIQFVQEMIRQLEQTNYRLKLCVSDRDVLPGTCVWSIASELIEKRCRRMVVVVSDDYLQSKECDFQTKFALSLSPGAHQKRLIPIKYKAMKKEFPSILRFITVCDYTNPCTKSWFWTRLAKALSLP

**Q.** Which results are given for `CC(C)C[C@@H]1NC(=O)[C@H](C(C)C)NC(=O)[C@H](CC(=O)O)NC(=O)[C@H](CCCNC(=N)N)NC(=O)CN(C(=O)[C@@H](N)Cc2c[nH]c3ccccc23)CCCCNC(=O)NCCCCN(CC(=O)NCC(=O)N[C@H](C(N)=O)[C@@H](C)O)C1=O` [4×4MyDI] (H-W[Nlys]RDVL[Nlys]GT-NH2; linker 2-7 via CO; N-terminus assumed)?
**A.** MyD88 dimerization (Flag-MyD88 co-precipitated with HA-MyD88) [1]: dramatically reduces the dimerization; inhibition of binding of the biotinylated peptide to the MyD88 TIR domain [2]: competitively inhibited
